Measured values reported in patent US20220195360A1, “Additive Manufacturing of Functional Myocardial Tissue” (The United States of America, as represented by the …, priority 2017, published 2022).
Where two headings read alike, the source gives them in different places.

Key:
Type in all cases: cell-based
[1] = system: neonatal rat cardiomyocytes; settings: 6 day
Description: For testing of the systems and methods according to several embodiments, neonatal rat cardiomyocytes were seeded following the formation of a layer of confluent endothelium at the peripheries the microfibers of the scaffolds, which generally occurred in 15 days. Freshly isolated cardiomyocytes were suspended in DMEM at a final concentration of 1×10^6 cells m/L. The scaffolds were individually placed on top of a thin layer of hydrophobic polydimethylsiloxane (PDMS). Approximately 40 μL of cell suspension was dropped to cover each scaffold, and incubated at 37° C. for 2 hours, to allow the cardiomyocytes to adhere onto the microfibers. […]
Live/Dead staining was performed according to the manufacturer's instructions (THERMO FISHER®). Beating of the cardiomyocytes was observed using an optical microscope and analyzed using custom-coded MATLAB programs, as known in the prior art. […] The levels of secreted vWF were measured by an ELISA kit (ab189571) by ABCAM®. […]
(§1) For example, the endothelialized-myocardium-on-a-chip model can be used to assess treatment by a common anti-cancer drug, doxorubicin. Unlike other pre-existing models, where only individual cell types were typically included, doxorubicin elicited dose-dependent responses towards both cardiomyocytes and endothelial cells when assessed using the systems and methods of several embodiments.

[2] = system: endothelial cells (HUVECs); settings: human, 6 day
Description: (§2) Both bioink 26 and CaCl2) solutions can be maintained at 37° C. before use. HUVECs can be re-suspended in the bioink at a concentration of 1×10^7 cells/mL. Following the bioprinting and the subsequent crosslinking processes, the constructs can be washed with PBS to remove excess CaCl2). After washing, the constructs can be cultured in endothelial cell growth medium (EGM) at 37° C. and 5% CO2 volume throughout a period of up to 33 days. The EGM/CO2 medium can be changed twice in the first day and then every 2 days thereafter.
(§3) Live/Dead staining was performed according to the manufacturer's instructions (THERMO FISHER®). Beating of the cardiomyocytes was observed using an optical microscope and analyzed using custom-coded MATLAB programs, as known in the prior art. Monitoring of the beating behavior was performed every day until contractions were no longer observed. […] The levels of secreted vWF were measured by an ELISA kit (ab189571) by ABCAM®.
as §1

[3] = system: hiPSC-cardiomyocytes; settings: human
Description: The seeding of hiPSC-cardiomyocytes can follow the same procedure that is described above for neonatal rat cardiomyocytes, except that a Roswell Park Memorial Institute (RPMI)-1640 medium containing 1×B27 supplements (by GIBCO®) can be used for culturing. Other choices in the prior art that are known for culturing cardiomyocytes might also be possible.
as §3
(§4) The same procedures for fabricating the vascular beds using bioprinted microfibrous scaffolds as described above were used, but hiPSC-cardiomyocytes were subsequently seeded instead of the neonatal rat cells. […] The human-derived myocardial organoids seemed to have slightly lower endurance at all of the time points analyzed in comparison to those of rat origin (FIG. 8C versus FIG. 7C). […]

[4] = system: endothelial cells (HUVECs); test: vWF expression by the endothelial component of the endothelialized-human-myocardium-on-a-chip; settings: different doses, human model (FIG. 8D) compared with rat model (FIG. 7D)
Description: as §2, §3, §4

For `COc1cccc2c1C(=O)c1c(O)c3c(c(O)c1C2=O)C[C@@](O)(C(=O)CO)C[C@@H]3O[C@H]1C[C@H](N)[C@H](O)[C@H](C)O1` [doxorubicin], the “relative beating rate of the cardiomyocytes” value ([1]; 10 μM) was 70.5%, the “relative beating rate of the cardiomyocytes” value ([1]; 100 μM) was 1.62% and the “levels of von Willebrand factor (vWF) secreted by the endothelial cells” value ([2]; 10 μM) was 76.0%. For the same compound, the “levels of von Willebrand factor (vWF) secreted by the endothelial cells” value ([2]; 100 μM) was 35.3%, the “relative beating of the hiPSC-cardiomyocytes” value ([3]; 10 μM) was 66.0% and the “relative beating of the hiPSC-cardiomyocytes” value ([3]; 100 μM) was 2.78%. For the same compound, the “toxicity on the endothelial component of the constructs (vWF expression)” value [4] was “corresponded well with that observed for the rat myocardial organoids”.
